Assay results reported in patent US12312359B2 (Vitae Pharmaceuticals, LLC, priority 2016, dated 2025).

Columns and labels:
[1] = system: human acute monocytic leukemia cell line MV-4-11; assay: Assay 2: cell proliferation assay (ATP quantitation, CellTiter-Glo), MV-4-11; format: cell-based; details: Homo sapiens, MV4-11, 72 h, MV-4-11 cells
Description: Potencies of inhibitor compounds against cell proliferation was assessed against the human acute monocytic leukemia cell line MV-4-11 (ATCC® CRL-9591™) based on ATP quantitation. MV-4-11 cells or toxicity control HL-60 cells (ATCC® CCL-240™) were incubated in 96-well tissue culture plates (1.67×10^4 cells in 200 μL culture media containing 10% FBS per well) with or without test compound for 72 h at 37° C., 5% CO2. After incubation, each well was mixed by pipetting and 95 μL from each well was transferred to a well in 96-well black OptiPlate® plates (PerkinElmer). An equal volume of CellTiter-Glo® Luminescent Cell Viability Assay reagent (Promega) was added to each well, followed by mixing for 5 min on an orbital plate shaker. Luminescence was measured on a Wallac EnVision 2104 Multilabel Reader (PerkinElmer) to quantitate ATP.

[2] = target: T1, biotinylated wild-type menin and MLL-AF9 fusion protein (menin/MLL binding) (Homo sapiens, UniProt O00255); assay: Assay 1: menin/MLL binding AlphaLISA assay, wild-type menin; details: Table 30; column head does not say wild-type or mutated menin
T1 construct: made in house; host or cells: menin: E. coli; MLL-AF9-FLAG: HEK293 cells, used as cleared lysate
T1 sequence (O00255 1-610): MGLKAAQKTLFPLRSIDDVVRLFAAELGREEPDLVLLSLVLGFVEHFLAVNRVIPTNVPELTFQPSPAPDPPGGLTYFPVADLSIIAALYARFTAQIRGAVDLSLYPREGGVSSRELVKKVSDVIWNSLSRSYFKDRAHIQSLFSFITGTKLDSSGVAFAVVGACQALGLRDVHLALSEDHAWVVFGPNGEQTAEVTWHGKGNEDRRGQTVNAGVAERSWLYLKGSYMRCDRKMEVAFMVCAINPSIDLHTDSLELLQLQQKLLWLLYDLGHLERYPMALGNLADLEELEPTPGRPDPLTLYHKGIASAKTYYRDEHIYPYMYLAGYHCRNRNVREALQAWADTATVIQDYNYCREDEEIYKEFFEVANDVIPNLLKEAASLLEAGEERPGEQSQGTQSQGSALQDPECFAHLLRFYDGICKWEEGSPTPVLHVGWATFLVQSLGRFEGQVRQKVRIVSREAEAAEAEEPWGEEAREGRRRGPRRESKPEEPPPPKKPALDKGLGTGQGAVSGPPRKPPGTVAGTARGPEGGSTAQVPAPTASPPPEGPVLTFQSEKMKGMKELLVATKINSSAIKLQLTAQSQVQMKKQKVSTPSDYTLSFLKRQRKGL
How it was run: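 Compound was preincubated 30 min at room temperature with biotinylated menin (5 nM) and MLL-AF9-FLAG lysate from HEK293 cells, pH 7.4 buffer with 5% DMSO and DTT. Bead-based Alpha signal after 60 min with streptavidin donor and anti-FLAG acceptor beads; four-parameter logistic fit gave IC50.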

EC50 [1] | IC50 [2] | Compound
100 to 1000 nM | < 100 nM | CC(C)N(C)C(=O)c1cc(F)ccc1Oc1cncnc1N1CC2(CC(NC3CCOCC3)C2)C1 [Example 92, 5-fluoro-N-isopropyl-N-methyl-2-((4-(6-((tetrahydro-2H-pyran-4-yl)amino)-2-azaspiro[3.3]heptan-2-yl)pyrimidin-5-yl)oxy)benzamide]
< 100 nM | < 100 nM | O=c1[nH]c2ccc(CN3CCC4(CCN(c5ncncc5Oc5ccc(F)cc5CN5CCOCC5)C4)C3)cc2[nH]1 (centres unmarked) [Example 70, 5-((7-(5-(4-fluoro-2-(morpholinomethyl)phenoxy)pyrimidin-4-yl)-2,7-diazaspiro[4.4]nonan-2-yl)methyl)-1H-benzo[d]imidazol-2(3H)-one]
< 100 nM | < 100 nM | CC(C)c1scnc1-c1cc(F)ccc1Oc1cncnc1N1CCC2(CCN(Cc3ccc4[nH]c(=O)[nH]c4c3)C2)C1 (centres unmarked) [Example 190, 5-((7-(5-(4-fluoro-2-(5-isopropylthiazol-4-yl)phenoxy)pyrimidin-4-yl)-2,7-diazaspiro[4.4]nonan-2-yl)methyl)-1,3-dihydro-2H-benzo[d]imidazol-2-one]
≥ 1000 nM | < 100 nM | NC1Cc2ccc(-c3cc(F)ccc3Oc3cncnc3N3CC4(CN(CC5CCOCC5)C4)C3)cc2C1 (centres unmarked) [Example 68, 5-(5-fluoro-2-((4-(6-((tetrahydro-2H-pyran-4-yl)methyl)-2,6-diazaspiro[3.3]heptan-2-yl)pyrimidin-5-yl)oxy)phenyl)-2,3-dihydro-1H-inden-2-amine]
100 to 1000 nM | < 100 nM | N#Cc1ccc(-c2cc(F)ccc2Oc2cncnc2N2CCC3(CCN(Cc4ccc(N5CCCC5=O)cc4)C3)C2)c(C2CC2)c1 (centres unmarked) [Example 195, 2-cyclopropyl-5′-fluoro-2′-((4-(7-(4-(2-oxopyrrolidin-1-yl)benzyl)-2,7-diazaspiro [4.4]nonan-2-yl)pyrimidin-5-yl)oxy)-[1,1′-biphenyl]-4-carbonitrile]
< 100 nM | < 100 nM | CC(C)n1nccc1-c1cc(F)ccc1Oc1cncnc1N1CCC2(CCN(Cc3ccc4nn[nH]c4c3)C2)C1 (centres unmarked) [Example 198, 6-((7-(5-(4-fluoro-2-(1-isopropyl-1H-pyrazol-5-yl)phenoxy)pyrimidin-4-yl)-2,7-diazaspiro[4.4]nonan-2-yl)methyl)-1H-benzo[d][1,2,3] triazole]
100 to 1000 nM | < 100 nM | CC(C)c1ccccc1-c1cc(F)ccc1Oc1cncnc1N1CCC2(CCN(C[C@H]3CC[C@H](N)CC3)C2)C1 (some centres unmarked) [Example 219, (1r,4r)-4-((7-(5-((5-fluoro-2′-isopropyl-[1,1′-biphenyl]-2-yl)oxy)pyrimidin-4-yl)-2,7-diazaspiro[4.4]nonan-2-yl)methyl)cyclo-hexan-1-amine]
< 100 nM | < 100 nM | N#Cc1ccc(-c2cc(F)ccc2Oc2cncnc2N2CCC3(CCN(Cc4ccc5oc(=O)[nH]c5c4)C3)C2)c(C2CC2)c1 (centres unmarked) [Example 169, 2-cyclopropyl-5′-fluoro-2′-((4-(7-((2-oxo-2,3-dihydrobenzo[d]oxazol-5-yl)methyl)-2,7-diazaspiro[4.4]nonan-2-yl)pyrimidin-5-yl)oxy)-[1,1′-biphenyl]-4-carbonitrile]
100 to 1000 nM | < 100 nM | N#Cc1ccc2c(CN3CCC4(CCN(c5ncncc5Oc5ccc(F)cc5OC5CCCC5)C4)C3)c[nH]c2c1 (centres unmarked) [Example 192, 3-((7-(5-(2-(cyclopentyloxy)-4-fluorophenoxy)pyrimidin-4-yl)-2,7-diazaspiro[4.4]nonan-2-yl)methyl)-1H-indole-6-carbonitrile]
100 to 1000 nM | < 100 nM | CC(C)N(C)C(=O)c1cc(F)ccc1Oc1cncnc1N1CC2(CN(CC[C@H]3CC[C@H](NC(=O)OC(C)(C)C)CC3)C2)C1 [Example 134, tert-butyl ((1r,4r)-4-(2-(6-(5-(4-fluoro-2-(isopropyl(methyl)carbamoyl)phenoxy)pyrimidin-4-yl)-2,6-diazaspiro[3.3]heptan-2-yl)ethyl)cyclohexyl) carbamate]
